Test [1] concerns ICAM-1 expression in BEAS2B cells. As to the kind of experiment: Poly I:C-induced ICAM-1 expression in BEAS2B cells. The conditions noted are these: Homo sapiens, BEAS-2B, read-out: PolyIC/ICAM1 IC50 (BEAS2B). The class given is cell-based. How it is done: Poly I:C was used in these studies as a simple, RNA virus mimic. Poly I:C-Oligofectamine mixture (2% Oligofectamine±1 μg/mL Poly I:C, 25 μL; Life Technologies and Invivogen Ltd., San Diego, Calif., respectively) was transfected into BEAS2B cells (human bronchial epithelial cells, ATCC). Cells were pre-incubated with final concentrations of test compounds for 2 h and the level of ICAM-1 expression on the cell surface was determined by cell-based ELISA. At a time point 18 h after poly I:C transfection, cells were fixed with 4% formaldehyde in PBS (100 μL) and then endogenous peroxidase was quenched by the addition of washing buffer (100 μL, 0.05% Tween in PBS: PBS-Tween) containing 0.1% sodium azide and 1% hydrogen peroxide. Cells were washed with wash-buffer (3×200 μL). After blocking the wells with 5% milk in PBS-Tween (100 μL) for 1 h, the cells were incubated with anti-human ICAM-1 antibody (50 μL; Cell Signaling Technology, Danvers, Mass.) in 1% BSA PBS overnight at 4° C.
The cells were washed with PBS-Tween (3×200 μL) and incubated with the secondary antibody (100 μL; HRP-conjugated anti-rabbit IgG, Dako Ltd., Glostrup, Denmark). The cells were then incubated with of substrate (50 μL) for 2-20 min, followed by the addition of stop solution (50 μL, 1N H2SO4). The ICAM-1 signal was detected by reading the absorbance at 450 nm against a reference wavelength of 655 nm using a spectrophotometer. The cells ware then washed with PBS-Tween (3×200 μL) and total cell numbers in each well were determined by reading absorbance at 595 nm after Crystal Violet staining (50 μL of a 2% solution in PBS) and elution by 1% SDS solution (100 μL) in PBS. The measured OD 450-655 readings were corrected for cell number by dividing with the OD595 reading in each well. The inhibition of ICAM-1 expression was calculated at each concentration of test compound by comparison with vehicle control.

The next test concerns the target T1, c-Src (Homo sapiens, UniProt P12931).
T1 construct: purchased Life Technologies
The test is described as follows: c-Src enzyme inhibition (Z-LYTE FRET). Conditions: Table 2A. The class given is biochemical. How it is done:
The enzyme inhibitory activities of compounds disclosed herein were determined by FRET using synthetic peptides labelled with both donor and acceptor fluorophores (Z-LYTE, Life Technologies, Paisley, UK).
The relevant enzyme (1000 ng/mL, 1400 ng/mL or 2000 ng/mL respectively, 2.5 μL) was incubated with the test compound (either 40 μg/mL, 12 μg/mL, 4 μg/mL, 1.2 μg/mL, 0.4 μg/mL, 0.12 μg/mL, 0.04 μg/mL, 0.012 μg/mL, 0.004 μg/mL or 0.0012 μg/mL, 2.5 μL each) for 2 h at RT. The FRET peptides (8 μM, 2.5 μL), and appropriate ATP solutions (2.5 μL, 800 μM for c-Src, and 60 μM ATP for HCK and Syk) were then added to the enzyme/compound mixtures and incubated for 1 h at RT. Development reagent (protease, 5 μL) was added for 1 h prior to detection in a fluorescence microplate reader (EnVision, Perkin Elmer).
In all cases, the site-specific protease cleaves non-phosphorylated peptide only and eliminates the FRET signal. Phosphorylation levels of each reaction were calculated using the ratio of coumarin emission (donor) over fluorescein emission (acceptor), for which low ratios indicate high phosphorylation and high ratios indicate low phosphorylation levels.

Test [2] concerns TNFα release in d-U937 cells. The test is described as follows: LPS-induced TNFα release in d-U937 cells. Note: relative to 10 µg/mL BIRB-796. The class given is cell-based. Conditions: Homo sapiens, dU937; read-out: LPS Induced Release TNFα REC50 (dU937). How it is done: U937 cells, a human monocytic cell line, were differentiated into macrophage-type cells by incubation with PMA (100-200 ng/mL) for 48 to 72 h. Cells were pre-incubated with final […] concentrations of test compound for 2 h and were then stimulated with LPS (0.1 μg/mL; from E. coli: O111:B4, Sigma) for 4 h. The supernatant was collected for determination of TNFα and IL-8 concentrations by sandwich ELISA (Duo-set, R&D systems). […] The relative 50% effective concentration (REC50) was determined from the resultant concentration-response curve. The inhibition of IL-8 production was calculated at each concentration of test compound by comparison with vehicle control.

Another test deals with T2, p38MAPKγ (MAPK12) (Homo sapiens, UniProt P53778).
T2 construct: purchased Life Technologies
T2 sequence (P53778 1-367): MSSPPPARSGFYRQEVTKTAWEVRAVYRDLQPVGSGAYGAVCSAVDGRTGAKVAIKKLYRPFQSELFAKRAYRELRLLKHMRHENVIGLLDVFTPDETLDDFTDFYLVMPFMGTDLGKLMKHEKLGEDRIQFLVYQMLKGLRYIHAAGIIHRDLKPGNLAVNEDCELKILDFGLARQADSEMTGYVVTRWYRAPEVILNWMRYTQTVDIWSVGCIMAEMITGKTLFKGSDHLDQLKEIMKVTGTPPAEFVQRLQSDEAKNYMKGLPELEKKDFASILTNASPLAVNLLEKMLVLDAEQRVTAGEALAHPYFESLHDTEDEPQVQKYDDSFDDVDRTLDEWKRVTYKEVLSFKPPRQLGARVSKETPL
As to the kind of experiment: p38 MAPKγ enzyme inhibition (Z-LYTE FRET). The class given is biochemical. The conditions noted are these: Table 2A; read-out: IC50 Values for Enzyme Inhibition p38 MAPKγ. The essentials:
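Enzyme (added at 800 ng/mL) was preincubated 2 h at RT with compound (solutions of 40 to 0.0012 μg/mL), then FRET peptide (8 μM) and ATP (400 μM), both as added, were reacted 1 h at RT. Protease development followed for 1 h; phosphorylation was read as the coumarin/fluorescein emission ratio.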

This note sets out measurements from US11142515B2, “Pyrazolyl-ureas as kinase inhibitors” (RESPIVERT LIMITED, priority 2014, dated 2021).

T1 sequence (P12931 whole entry): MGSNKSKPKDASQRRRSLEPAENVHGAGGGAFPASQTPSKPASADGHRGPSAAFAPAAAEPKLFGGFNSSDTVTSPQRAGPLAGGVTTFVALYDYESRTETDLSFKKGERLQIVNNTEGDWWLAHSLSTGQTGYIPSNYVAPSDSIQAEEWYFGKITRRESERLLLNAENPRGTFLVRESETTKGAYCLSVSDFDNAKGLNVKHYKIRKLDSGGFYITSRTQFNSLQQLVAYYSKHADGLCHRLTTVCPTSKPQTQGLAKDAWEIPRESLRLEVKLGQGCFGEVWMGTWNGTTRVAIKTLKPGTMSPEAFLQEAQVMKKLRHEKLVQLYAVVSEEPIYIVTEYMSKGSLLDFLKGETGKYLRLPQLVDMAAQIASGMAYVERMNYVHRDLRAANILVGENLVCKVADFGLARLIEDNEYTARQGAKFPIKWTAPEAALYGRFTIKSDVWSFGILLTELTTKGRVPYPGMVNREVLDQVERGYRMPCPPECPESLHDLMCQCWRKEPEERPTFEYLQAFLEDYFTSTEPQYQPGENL

For the compound `Cc1ccc(-n2nc(C(C)(C)C)cc2NC(=O)Nc2ccc(OCc3ccnc(Nc4cnc(C(=O)N5CCCC5)cn4)c3)c3ccccc23)cc1` [Example 36], the IC50 in test [1] stood at 188 nM; on c-Src, 61 nM; at p38MAPKγ (MAPK12), 1070 nM. Besides, the EC50 in test [2] is 1.6 nM.
For the compound `COc1ccc(-n2nc(C(C)(C)C)cc2NC(=O)Nc2ccc(OCc3ccnc(Nc4cnccn4)c3)c3ccccc23)cc1C` [Example 39], the IC50 in test [1] was found to be 46.6 nM; on c-Src, 82 nM; at p38MAPKγ (MAPK12), 310 nM. Besides, the EC50 in test [2] was found to be 3.4 nM.
As for `Cc1ccc(-n2nc(C(C)(C)C)cc2NC(=O)Nc2ccc(OCc3ccnc(Nc4cncc(C#N)n4)c3)c3ccccc23)cc1` [Example 11], the IC50 in test [1] is more than 1600 nM; against c-Src, 600 nM; on p38MAPKγ (MAPK12), 682 nM. The EC50 in test [2] was found to be 2.3 nM.
For `Cc1ccc(-n2nc(C(C)(C)C)cc2NC(=O)Nc2ccc(OCc3ccnc(Nc4cncc(C5CCCC5)n4)c3)c3ccccc23)cc1` [Example 48], in that order: 92.5 nM, 459 nM, 1230 nM and 0.3 nM.
For `CC(C)(C)c1cc(NC(=O)Nc2ccc(OCc3ccnc(Nc4cncc(C5CC5)n4)c3)c3ccccc23)n(-c2ccc(CO)cc2)n1` [Example 25], in that order: 13.1 nM, 10 nM, 49 nM and 1.4 nM.
Taken in the same sequence, the figures for `COc1ccc(-n2nc(C(C)(C)C)cc2NC(=O)Nc2ccc(OCc3ccnc(Nc4cnccn4)c3)c3ccccc23)cc1` [Example 38] were 75.5 nM, 153 nM, more than 16300 nM and 2.7 nM.
Take `Cc1ccc(-n2nc(C(C)(C)C)cc2NC(=O)Nc2ccc(OCc3ccnc(Nc4cnc(CO)cn4)c3)c3ccccc23)cc1` [Example 10, 1-(3-(tert-Butyl)-1-(p-tolyl)-1H-pyrazol-5-yl)-3-(4-((2-((5-(hydroxymethyl)pyrazin-2-yl)amino)pyridin-4-yl)methoxy)naphthalen-1-yl)urea]: the IC50 amounted to 32.5 nM in test [1], 47 nM against c-Src and 31 nM at p38MAPKγ (MAPK12). In test [2], the EC50 was determined as 2.8 nM.
`COCCNC(=O)c1cnc(Nc2cc(COc3ccc(NC(=O)Nc4cc(C(C)(C)C)nn4-c4csc(C)c4)c4ccccc34)ccn2)cn1` [Example 44]: the IC50 in test [1] came to 1150 nM; against c-Src, 233 nM; on p38MAPKγ (MAPK12), 454 nM. Further, the EC50 in test [2] is 88.2 nM.
`Cc1ccc(-n2nc(C(C)(C)C)cc2NC(=O)Nc2ccc(OCc3ccnc(Nc4cnc(C)c(C)n4)c3)c3ccccc23)cc1` [Example 4, 1-(3-(tert-Butyl)-1-(p-tolyl)-1H-pyrazol-5-yl)-3-(4-((2-((5,6-dimethylpyrazin-2-yl)amino)pyridin-4-yl)methoxy)naphthalen-1-yl)urea]: the IC50 is more than 1600 nM in test [1], 447 nM on c-Src and 441 nM on p38MAPKγ (MAPK12). In addition, the EC50 in test [2] turned out to be 25.6 nM.
For `COc1ccc(-n2nc(C(C)(C)C)cc2NC(=O)Nc2ccc(OCc3ccnc(Nc4cncc(C5CC5)n4)c3)c3ccccc23)cc1` [Example 22], in that order: 19.6 nM, 27 nM, 377 nM and 2.1 nM.
With `Cc1ccc(-n2nc(C(C)(C)C)cc2NC(=O)Nc2ccc(OCc3ccnc(Nc4cncc(C5CC5)n4)c3)c3ccccc23)s1` [Example 24], the IC50 in test [1] was 55.1 nM; against c-Src, 42 nM; at p38MAPKγ (MAPK12), 334 nM. For the same compound, the EC50 in test [2] amounted to 3.1 nM.
Turning to `COc1cncc(Nc2cc(COc3ccc(NC(=O)Nc4cc(C(C)(C)C)nn4-c4ccc(C)cc4)c4ccccc34)ccn2)n1` [Example 18], the IC50 was 97.8 nM in test [1], 196 nM against c-Src and 104 nM on p38MAPKγ (MAPK12). In test [2], the EC50 amounted to 2.6 nM.
On to `Cc1ccc(-n2nc(C(C)(C)C)cc2NC(=O)Nc2ccc(OCc3ccnc(Nc4cnc(CC(N)=O)cn4)c3)c3ccccc23)cc1` [Example 30], for which the IC50 in test [1] came out at 115 nM; against c-Src, 19 nM; on p38MAPKγ (MAPK12), 29 nM. Further, the EC50 in test [2] stood at 5.2 nM.
Take `CC(C)(C)c1cc(NC(=O)Nc2ccc(OCc3ccnc(Nc4cnccn4)c3)c3ccccc23)n(-c2cccc(F)c2)n1` [Example 49]: the IC50 in test [1] was determined as 474 nM; against c-Src, 556 nM; on p38MAPKγ (MAPK12), 129 nM. Further, the EC50 in test [2] was 2.3 nM.
In the case of `Cc1ccc(-n2nc(C(C)(C)C)cc2NC(=O)Nc2ccc(OCc3ccnc(Nc4cnccn4)c3)c3ccccc23)cc1` [Example 1, 1-(3-(tert-Butyl)-1-(p-tolyl)-1H-pyrazol-5-yl)-3-(4-((2-(pyrazin-2-ylamino)pyridin-4-yl)methoxy)naphthalen-1-yl)urea], the IC50 in test [1] was found to be 81.8 nM; at c-Src it was 98 nM; on p38MAPKγ (MAPK12), 67 nM. Moreover, the EC50 in test [2] came out at 1.6 nM.
For `CNC(=O)Cc1cncc(Nc2cc(COc3ccc(NC(=O)Nc4cc(C(C)(C)C)nn4-c4ccc(C)cc4)c4ccccc34)ccn2)n1` [Example 28], in that order: 75.5 nM, 32 nM, 106 nM and 2.7 nM.
As for `Cc1ccc(-n2nc(C(C)(C)C)cc2NC(=O)Nc2ccc(OCc3ccnc(Nc4cncc(CC(N)=O)n4)c3)c3ccccc23)cc1` [Example 32], the IC50 worked out at 65.6 nM in test [1], 25 nM against c-Src and 37 nM at p38MAPKγ (MAPK12). The EC50 in test [2] turned out to be 13 nM.
Taken in the same sequence, the figures for `CNC(=O)Cc1cnc(Nc2cc(COc3ccc(NC(=O)Nc4cc(C(C)(C)C)nn4-c4ccc(C)cc4)c4ccccc34)ccn2)cn1` [Example 33] were 150 nM, 35 nM, 53 nM and 2.6 nM.
For `CC(C)c1ccc(-n2nc(C(C)(C)C)cc2NC(=O)Nc2ccc(OCc3ccnc(Nc4cnccn4)c3)c3ccccc23)cc1` [Example 41], the values for the IC50 (in test [1]; at c-Src; at p38MAPKγ (MAPK12)) were more than 1600 nM, 11000 nM and more than 16000 nM, respectively. Moreover, the EC50 in test [2] was 3 nM.
